A short description of assay [1]: Inhibition of mouse GAT3 expressed in HEK293 cells assessed as reduction in [3H]GABA uptake preincubated for 25 mins followed by [3H]GABA addition and measured after 4 mins by liquid scintillation counting method.
The nature of assay [2]: Inhibition of mouse GAT2 expressed in HEK293 cells assessed as reduction in [3H]GABA uptake preincubated for 25 mins followed by [3H]GABA addition and measured after 4 mins by liquid scintillation counting method.

For ten compounds, IC50 results are on record in BindingDB's records for doi:10.1016/j.bmc.2018.11.002 (2018).

Regarding `COc1ccc(C(/C=C/CN2CCCC(C(=O)O)C2)(c2ccc(OC)cc2)c2ccc3c(c2)OCO3)cc1` (stereo not given), in assay [1], the IC50 was 10.2 µM.

Consider `COc1ccc(C(C/C=C/CN2CCCC(C(=O)O)C2)(c2ccc(OC)cc2)c2ccc(OC)cc2)cc1` (stereo not given), for which the IC50 in assay [1] came out at 85.1 µM. As for `COc1ccc(C(/C=C/CN2CCCC(C(=O)O)C2)(c2ccc(OC)cc2)c2ccsc2)cc1` (stereo not given), the IC50 in assay [1] turned out to be 42.7 µM. In the case of `COc1ccc(C(/C=C/CN2CCCC(C(=O)O)C2)(c2ccc(OC)cc2)c2ccc3sccc3c2)cc1` (stereo not given), the results for the IC50 in assay [2] and in assay [1] were 25.1 µM and 20 µM, respectively. Regarding `COc1ccc(C(/C=C/CN2CCC[C@H](C(=O)O)C2)(c2ccc(OC)cc2)c2ccc3sccc3c2)cc1`, the 50% inhibitory concentration (IC50) in assay [2] turned out to be 23.4 µM.

Take `O=C(O)C1CCCN(C/C=C/C(c2ccc3occc3c2)(c2ccc3occc3c2)c2ccc3occc3c2)C1` (stereo not given): the IC50 in assay [2] came to 9.55 µM; in assay [1] it was 5.5 µM. For `O=C(O)C1CCCN(C/C=C/C(c2ccc3c(c2)OCO3)(c2ccc3c(c2)OCO3)c2ccc3c(c2)OCO3)C1` (stereo not given), the IC50 in assay [2] was determined as 89.1 µM; in assay [1], 24.5 µM.

Take `O=C(O)C1CCCN(C/C=C/C(c2ccc3sccc3c2)(c2ccc3sccc3c2)c2ccc3sccc3c2)C1` (stereo not given): the IC50 amounted to 33.9 µM in assay [2] and 52.5 µM in assay [1]. With `COc1ccc(C(/C=C/CN2CCCC(C(=O)O)C2)c2ccc(OC)cc2)cc1` (stereo not given), in assay [1], the IC50 came to 53.7 µM.

With `Cc1ccc(C(/C=C/CN2CCCC(C(=O)O)C2)(c2ccc(C)cc2)c2ccc(C)cc2)cc1` (stereo not given), the results for the IC50 in assay [2] and in assay [1] were 14.1 µM and 15.8 µM, respectively.

What is called IC50 is the concentration that inhibits the measured activity by half.
